Results published in patent US7468150B2, “Synthesis of conducto-magnetic polymers as nano-transducers in biosensor design” (Board of Trustees of Michigan State University, priority 2005, dated 2008).
In brackets after ≈: the same amount, converted by molar mass.

Columns and labels:
Format in all cases: physicochemical
[1] = Conductivities of polymers and nanocomposites in solution (Acorn TDS 5 Meter); conditions: solvent as given in the compound name
Description: In order to characterize […] and related compounds, several methods were utilized. First, the DC SQUID (Superconducting Quantum Interference Device) magnetometer was used to measure magnetization of solid […] after 3 weeks and the […] base (control). Absorbance checks using spectrophotometer were performed on […] in solution. Conductivities in solution of […] were gauged by Acorn® TDS 5 Meter. […] To create β-carotene nanocomposites, the use of an appropriate solvent was crucial. […] Solutions of β-carotene nanocomposites were characterized by absorbance checks and conductivity measurements. […] Mixtures of β-carotene […] various other PANi-derived polymers are attained forming a variety of other composites.

[2] = Solubility of β-carotene in kwik-dri; conditions: crudely determined
Description: (§1) β-carotene nanocomposites: To create β-carotene nanocomposites, the use of an appropriate solvent was crucial. Acetone, toluene, kwik-dri, and tetrahydrofuran (THF) were tested. The solubility of β-carotene in kwik-dri, a non-aromatic industrial solvent similar to toluene, was crudely determined. Solutions of β-carotene nanocomposites were characterized by absorbance checks and conductivity measurements. […] Mixtures of β-carotene with PANi emeraldine salt and various other PANi-derived polymers are attained forming a variety of other composites.

[3] = Degradability of β-carotene in toluene by absorbance over time; conditions: absorbance graphs over several days
Description: as §1

Conductivity [1]: ~0 μS
Conductivity ([1]; listed as Kwik-dri + β-carotene): 0.15 μS
Conductivity ([1]; listed as THF + β-carotene): ~0 μS
Solubility [2]: 500 mg/L (≈ 931 µM)
SMILES: CC1=C(/C=C/C(C)=C/C=C/C(C)=C/C=C/C=C(C)/C=C/C=C(C)/C=C/C2=C(C)CCCC2(C)C)C(C)(C)CCC1 [β-carotene]
Degradability [3]: degradability in toluene was demonstrated
